{"source": "patent US20070059385A1", "about": "“Safe pharmaceutical composition for treating and preventing cancer and method of use” (priority 2005, published 2007)", "key": {"carcinogen-DNA binding": {"test_system": "carcinogen-DNA binding", "experiment": "Inhibition of carcinogen-DNA binding", "type": "cell-based", "method": "Cells were maintained in 75-cm^2 tissue culture flask with media supplemented with retinoic acid (0.1 μg/ml) and epinephrine (0.5 μg/ml). The cells were passage when they reached approximately 80% confluence and were maintained at 37° C. in 5% CO2. Cells were plated at a density of 5×10^5 cells/well in 6-well tissue culture plates and allowed to incubated for 18 h at 37° C. in 5% CO2. Following incubation, the DNA was harvested and resuspended in Tris-EDTA buffer. RNA was removed by treating with RNase T1 and RNase A at 37° C. for 1 h. An aliquot was used for determining the DNA content by the absorbency at 260 nm, and the rest of the sample was used to determine the radioactivity; the percentage inhibition of carcinogen-DNA binding was determined by measuring the cpm/mg of DNA in the carcinogen."}, "gastric cancer cells": {"test_system": "gastric cancer cells", "experiment": "Cellular diversion of gastric cancer cells (NBT)", "type": "cell-based", "method": "The gastric cancer cells and normal cells were cultured in PRMI 1640 medium supplement with 10% FCS serum. Other method is similar to example 8."}, "L615 transplanted tumor": {"test_system": "L615 transplanted tumor", "experiment": "Growth of transplanted tumor in mice", "type": "in vivo", "conditions": "intraperitoneally, sacrificed on the 12th day", "method": "Male mice, weight 20-22 g, were used in the experiment. 1×10^7 tumor cells were injected to mouse and other drugs injected intraperitoneally began second day. All mice were sacrificed on the 12th day, isolated the tumor and weighed and calculated the inhibition rate of tumor weight.\nThe effect of other drugs and HHT on the growth of animal transplanted tumor as illustrated by the Table 6.20 mg/kg of other drugs could inhibit the growth of L615 transplanted tumor."}, "[1]": {"experiment": "Toxic dose for mice (LD50)", "type": "in vivo"}, "tyrosine kinase (TK)": {"test_system": "tyrosine kinase (TK)", "experiment": "Tyrosine kinase (TK) assay in HL-60 leukemia cells", "type": "cell-based, human", "method": "Tyrosine kinase (TK) Assay: TK was measured by a modification of the method of Braun et al. Briefly, H-60 leukemia cells were plated at a density of 5×10^5 cells in […], and divided control and treatments groups for incubation 24 hours at 37° C. with 5% CO2. The cells were collected by scraping, washed twice with phosphate-buffered saline, and resuspended at density of 10^6 cells/ml in 5 mM HEPEs buffer (pH 7.4). The cells were then resuspended in 1 ml of buffer containing 5 mM HEPES (pH 7.6), 1 mM MgCl2 and 1 mM EDTA, then placed on ice bath. The cell membrane was disrupted by ultra sound and centrifuged at 1,000×g for 10 minutes. The supernatant was ultra centrifuged at 30,000×g for 30 minutes at 4° C. The pellet was resuspended in 0.3 ml of buffer containing 25 mM HEOES, centrifuged at 12,000×g for 5 minutes. The resulting supernatant was used for TK assay. Content of protein was determined. 10 μg of protein placed in 20 mM HEPES (pH 7.6), 15 mM MgCl2, 10 mM ZnCl2 and 5% (v/v) nonidet P-40, with or without substrate [glutamic acid (GT), mg/ml]. After 5 minutes incubation at 25° C., the reaction was initiated by the addition of 25 μM [γ^32P] ATP (3 ci/mmol). After 10 minutes, the reaction was stopped by the addition of 20 mM cold ATP. 50 μl of the mixtures were spotted on glass microfiber filter discs and washed three times with cold trichloroacetic acid (TCA), contained 10 mM sodium pyrophosphate. Air dried. Radioactivity was determined by liquid scintillation spectrometry. The net TK activity was determined after correcting for endogenous TK activity."}, "TA98": {"test_system": "TA98", "experiment": "Salmonella mutagenicity assay TA98", "method": "The method for detecting mutagenicity of HHT, with the Salmonella system that detects the reversion of the bacteria from His^− to His^+, is widely used.\nThe bacterial tester strains used for mutagenesis testing are TA97, TA98, TA100 and TA102. Mutagenesis testing method was done as described previously ^[77-88]. In brief, TA97, TA98, TA100 and TA102 were grown in agar gel culture. The petri plats (100×15 mm style) contain 30 ml with 2% glucose. The agar mixture was agitated vigorously and immediately poured into plates of minimal agar. The cultures were incubated at 37° C. in a dark and 5% CO2 in air for 48 hours. After 48 hours the colonies in both test and controls are counted. The presence of a background lawn of bacteria on the histidine-poor soft agar plate was used as an indication that gross toxic effects were absent. Mutagenicity assays were carried out at least in triplicate.\nThe range of spontaneous mutation rates for the individual strains, which were considered to be acceptable, was TA97 (100-170), TA98 (20-40) and TA100 (80-150)."}, "HL-60 cells": {"test_system": "HL-60 cells", "experiment": "Induction of differentiation (NBT reduction) of human leukemic cells", "type": "cell-based", "conditions": "Mu, GU, MAT, IND 50 ng/ml, higher NBT (%) means higher normal cells", "method": "HL-60 cells were established from a patient with acute myeloid leukemia. The cells were cultured in culture flasks with RPMI plus 10% FCS.\nDifferentiation of HL-60 cells was assessed by their abilities to produced superoxide as measured by reduction of NBT, by NSE staining and by morphology as detected on cytospin preparations stained with Diff-Quick stain Set, and by analysis of membrane-bound differentiation markers with two-color immunofluorescence. Briefly, cells were preincubated at 4° C. for 60 min in 10% human AB serum and then with FITC-conjugated mouse IgGI isotype control. Analysis of fluorescence was performed on a flow cytometer.\nHL-60 cells were culture in a two-layer soft agar system for 10 days without adding any growth factors as described previously, and colonies were counted using an inverted microscope. The analogues were added to the agar upper layer on day 0. For analysis of the reversibility of inhibition of proliferation, the cells were cultured in suspension culture with and without HHT or other drugs. After 60 hours, the culture flasks were gently jarred to loosen adherent cells, the cells were washed twice in cultured medium containing 10% FCS to remove the test drugs, and then the clonogenic assay was performed. NBT% indicated percentage of normal cells."}, "[2]": {"test_system": "NNK-induced lung tumorigenesis", "experiment": "NNK-induced lung tumorigenesis", "type": "in vivo", "conditions": "mice; drug 20 mg/kg daily by injection; 10 μmol NNK i.p.; pulmonary adenomas after sixteen weeks", "method": "Every group had 20 mice. […] For control group, each mouse was gave same volume of physiological saline. Three days later, mice were gave 10 μmol NNK (in 0.1 ml saline) by i.p. injection. Sixteen weeks after these treatments the mice were killed and pulmonary adenomas were counted. The statistical significance of bioassay data was determined by student's test."}}}
{"compound": "COC(=O)C[C@](O)(CCCC(C)(C)O)C(=O)O[C@@H]1C(OC)=C[C@]23CCCN2CCc2cc4c(cc2[C@H]13)OCO4", "note": "[HHT, Homoharringtonine]", "values": [{"measurement": "Inhibition (%) of carcinogen-DNA binding", "setting": "carcinogen-DNA binding", "value": "56.8 ± 6.2", "unit": "%"}, {"measurement": "NBT (%)", "setting": "gastric cancer cells", "value": "58 ± 8.9", "unit": "%"}, {"measurement": "Inhibition (%) of transplanted tumor (tumor weight)", "setting": "L615 transplanted tumor", "value": "68 ± 7.2", "unit": "%"}, {"measurement": "mice died", "setting": "[1]; 38 normal mice, 2 mg/kg/day×5, observation period of 5 days", "value": "about 50%"}, {"measurement": "LD50", "setting": "[1]; mouse, in vivo, ip, mice, I.P.", "value": "3.17 ± 0.19", "unit": "mg/kg"}, {"measurement": "inhibition of HL-60 TK activity", "setting": "tyrosine kinase (TK); 10^−7 M", "value": 78.5, "unit": "%"}, {"measurement": "inhibition of HL-60 TK activity", "setting": "tyrosine kinase (TK); 10^−8 M", "value": 12.2, "unit": "%"}, {"measurement": "% of control activity (TK)", "setting": "tyrosine kinase (TK); HL-60 leukemia cells, 10^−6 M", "value": 0.6, "unit": "%"}, {"measurement": "% of control activity (TK)", "setting": "tyrosine kinase (TK); HL-60 leukemia cells, 10^−8 M", "value": "87.8 ± 12", "unit": "%"}, {"measurement": "% of control activity (TK)", "setting": "tyrosine kinase (TK); Table 8, concentration not given", "value": "21.5 ± 4.0", "unit": "%"}, {"measurement": "Number of His^+ revertants/plate", "setting": "TA98; TA98 +S, 0.1 μg/plate", "value": "34 ± 4", "unit": "revertants/plate"}, {"measurement": "Number of His^+ revertants/plate", "setting": "TA98; TA98 +S, 1 μg/plate", "value": "32 ± 4", "unit": "revertants/plate"}, {"measurement": "Number of His^+ revertants/plate", "setting": "TA98; TA98 +S, 10 μg/plate", "value": "36 ± 3", "unit": "revertants/plate"}, {"measurement": "Number of His^+ revertants/plate", "setting": "TA98; TA98 +S, 100 μg/plate", "value": "34 ± 4", "unit": "revertants/plate"}, {"measurement": "Number of His^+ revertants/plate", "setting": "TA98; TA98 −S, 0.1 μg/plate", "value": "29 ± 3", "unit": "revertants/plate"}, {"measurement": "Number of His^+ revertants/plate", "setting": "TA98; TA98 −S, 1 μg/plate", "value": "30 ± 3", "unit": "revertants/plate"}, {"measurement": "Number of His^+ revertants/plate", "setting": "TA98; TA98 −S, 10 μg/plate", "value": "38 ± 4", "unit": "revertants/plate"}, {"measurement": "Number of His^+ revertants/plate", "setting": "TA98; TA98 −S, 100 μg/plate", "value": "32 ± 4", "unit": "revertants/plate"}, {"measurement": "NBT (%)", "setting": "HL-60 cells", "value": "65 ± 7.0", "unit": "%"}, {"measurement": "Tumor incidence (%)", "setting": "[2]", "value": "35.8 ± 4.5", "unit": "%"}]}
